Assay results as given in PubChem BioAssay (NCI).
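Values below derive from 48-hour exposures of cells grown in 96-well plates, with endpoints linearly interpolated between the two concentrations bracketing the appropriate inhibition level. GI50: concentration for 50% inhibition of growth. The concentration for full growth arrest is given as TGI.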

Experiments:
Assay in all cases: NCI tumour cell line growth inhibition, 48 h
[1] = test system: 786-0 renal
[2] = test system: A498 renal
[3] = test system: A549 NSCLC
[4] = test system: ACHN renal
[5] = test system: CCRF-CEM leukemia
[6] = test system: HCC-2998 colon
[7] = test system: NCI-H226 lung
[8] = test system: NCI-H460 lung
[9] = test system: OVCAR-8 ovarian
[10] = test system: RXF 393 renal
[11] = test system: SF-268 CNS
[12] = test system: SF-295 CNS
[13] = test system: TK-10 renal
[14] = test system: UACC-257 melanoma
[15] = test system: UO-31 renal
[16] = test system: M14 melanoma
[17] = test system: UACC-62 melanoma
[18] = test system: T-47D breast

SMILES	TGI [1] [µM]	TGI [2] [µM]	TGI [3] [µM]	TGI [4] [µM]	TGI [5] [µM]	TGI [6] [µM]	TGI [7] [µM]	TGI [8] [µM]	TGI [9] [µM]	TGI [10] [µM]	TGI [11] [µM]	TGI [12] [µM]	TGI [13] [µM]	TGI [14] [µM]	TGI [15] [µM]	TGI [16] [µM]	TGI [17] [µM]	TGI [18] [µM]	GI50 [17] [µM]
O=C(O)C(Cc1ccc(O)cn1)NC(=O)C(F)(F)F (centres undefined)	> 100	> 100	> 100	> 100	> 100	> 100	> 100	> 100	> 100	> 100	> 100	> 100	> 100	> 100	> 100	–	–	–	–
C#CCCCC(=C)C[C@H](OCc1ccccc1)[C@H]1OC(=O)[C@@H]1C	–	> 100	> 100	> 100	> 100	> 100	> 100	> 100	> 100	> 100	> 100	> 100	> 100	> 100	58.8	> 100	> 100	–	–
Cc1ccc(S(=O)(=O)Nn2c(-c3ccccc3)c(C#N)c(-c3ccc(Cl)cc3)c(C#N)c2=O)cc1	30.9	51.1	> 100	> 100	60.4	> 100	–	> 100	–	> 100	–	> 100	> 100	> 100	–	41.4	33	–	–
CCCCCCNC(=O)c1cc(NCc2cc(OC)ccc2OC)ccc1O	75	–	> 100	> 100	68.6	68.4	64.9	84.4	86.7	56.5	32.3	30.1	> 100	45.7	53.1	38.4	33	46.1	–
CC(N)Cc1cccc(C(F)(F)F)c1 (centres undefined)	> 100	> 100	> 100	> 100	> 100	> 100	> 100	> 100	> 100	> 100	> 100	> 100	> 100	> 100	> 100	> 100	> 100	–	–
CC(=O)O[C@H]1CC[C@H]2[C@@H]3CCc4cc(O)c(I)cc4[C@H]3CC[C@]12C	27.1	–	29.5	28.1	–	32.2	30.7	26.9	37.9	–	28.4	28.6	33.6	30	27.1	27.3	24.4	31.7	12
O=C1CN(c2cccc(C(F)(F)F)c2)C(=O)CN1NCNN1CC(=O)N(c2cccc(C(F)(F)F)c2)CC1=O	> 100	–	> 100	> 100	> 100	> 100	–	> 100	> 100	–	> 100	> 100	> 100	> 100	> 100	> 100	–	> 100	–
CC(=O)OCC1OC(n2c(C)c(N=Nc3ccc(C)cc3)c(C)c(C#N)c2=S)C(OC(C)=O)C(OC(C)=O)C1OC(C)=O (centres undefined)	72.4	–	> 100	> 100	> 100	> 100	–	> 100	–	> 100	> 100	> 100	> 100	> 100	> 100	> 100	> 100	> 100	–
COc1cc(CC2CCc3nc(N)nc(N)c3C2)cc(OC)c1OC (centres undefined)	–	> 87.8	> 100	> 45.6	–	> 46.9	> 66.1	> 91.5	> 100	11.9	13.4	> 51.3	> 100	> 63.1	> 71.5	28.7	> 100	> 100	–
CC(C)(C)CN1[C@@H]2CCCC[C@H]2N(CC(C)(C)C)P1(=O)Cc1ccccc1	29.9	–	24.1	28.5	31.3	21.2	29.7	28.1	27.7	24.1	28.7	23.1	25	25.6	26.1	26.3	22.5	26.6	–
CC1CCCOc2ccc(cc2)C=Nc2ccc(cc2)CCc2ccc(cc2)N=Cc2ccc(cc2)OCCC1 (centres undefined)	> 100	> 100	> 100	> 100	> 100	> 100	> 100	> 100	> 100	–	> 100	> 100	> 100	> 100	> 100	> 100	> 100	–	–
Cc1nc(Nc2nnc(-c3cc([N+](=O)[O-])cc([N+](=O)[O-])c3C)o2)sc1C(=O)CC(=O)Cc1nc2ccc(Cl)cc2[nH]c1=O	–	> 100	> 100	> 100	> 100	> 100	> 100	> 100	> 100	> 100	> 100	> 100	> 100	> 100	> 100	> 100	> 100	–	–
COc1ccc(C2Oc3c(cccc3OC)C=C2[N+](=O)[O-])cc1OC (centres undefined)	19.7	–	> 100	29.3	> 100	–	78.2	> 100	–	8.76	> 100	71.7	81.8	–	29.2	19.6	17.9	> 100	–
C[C@]12CCC3c4ccc(OC(=O)c5ccccc5)cc4CC[C@H]3C1CC[C@@H]2OC(=O)C12OC1CCC2=O (some centres undefined)	6.4	14.2	10.3	10.4	5.39	> 71.9	34.5	8.3	31.3	4.51	14.6	28.7	33.9	14.8	11.9	12	38.4	–	–
